{"source": "patent US20240139333A1", "about": "“2,6-DICHLOROPHENYL ESTER COMPOUNDS AND USE THEREOF” (Fusion Pharmaceuticals Inc., priority 2021, published 2024)", "key": {"[1]": {"test": "Comparative active ester reactivity study with HOPO nucleophile", "conditions": "1,2-HOPO 1 eq., 22±2° C.", "protocol": "(§1) General Experimental Protocol for Comparative Active Ester Reactivity Study with HOPO or HOA Nucleophiles\n(§2) To a 4 mL scintillation vial containing Compound A-E (in respective experiments; 1 eq.) was added a stir bar followed by 150 μL of HPLC grade acetonitrile. In another 4 mL scintillation vial containing a respective nucleophile (1 eq.) was added 280 μL HPLC grade water. The solutions were combined and allowed to stir at room temperature (22±2° C.) for 4 hours. Timed aliquots at time (T)=15, 30, 60, 120 and 240 minutes were taken and analyzed by HPLC-MS using elution method 1 (Table 1)."}, "[2]": {"test": "Comparative active ester reactivity study with HOA nucleophile (N-hydroxy-N-methylbenzamide)", "conditions": "N-Hydroxy-N-methylbenzamide 1 eq., 22±2° C.", "protocol": "as §1, §2"}, "[3]": {"test": "Nucleophilic reactivity study with L-Lysine", "conditions": "L-Lysine 5 equiv, 22±2° C.", "protocol": "General Experimental Protocol for Nucleophilic Reactivity Study with L-Lysine\nTo a 4 mL scintillation vial containing Compound A-E (in respective experiments; 1 eq.) was added a stir bar followed by 70 μL of HPLC grade acetonitrile. In another 4 mL scintillation vial containing L-Lysine monohydrochloride (5 eq.) was added 130 μL HPLC grade water followed by diisopropylethylamine (5 eq.). The solutions were combined and allowed to stir at room temperature (22±2° C.). Timed aliquots at time (T)=15, 30, 60 and 120 minutes were taken and analyzed by HPLC-MS using elution method 1 (Table 2)."}, "[4]": {"test": "pH stability study", "format": "physicochemical", "conditions": "20° C.", "protocol": "To a 4 mL scintillation vial containing Compound A-E (in respective experiments; 0.8 mg) was added 4 mL of either a pH 3, pH 5 pH 7 or pH 9 buffer to create a 0.2 mg/mL solution. 2 mL of this solution was added to a 2 mL HPLC vial and placed in the auto sampler of an HPLC-MS at 20° C. Timed aliquots at time (T)=15, 30, 60, 120, 240 and 480 minutes were taken and analyzed by HPLC-MS using elution method 1 (Table 3). […]\npH 3 Buffer: Citric acid/Na2HPO4 (79.45 mL 0.1 M-citric acid and 20.55 mL 0.2-Na2HPO4) pH 5 Buffer: Citric acid/Na2HPO4 (48.50 mL 0.1 M-citric acid and 51.50 mL 0.2-Na2HPO4) pH 7 Buffer: Citric acid/Na2HPO4 (17.65 mL 0.1 M-citric acid and 82.35 mL 0.2-Na2HPO4) pH 9 Buffer: Sodium Carbonate/Sodium Bicarbonate (10 mL 0.1 M-Na2CO3 and 90 mL 0.1-NaHCO3)"}, "[5]": {"test": "DMSO stability study", "format": "physicochemical", "protocol": "To a 4 mL scintillation vial containing Compound A-E (in respective experiments; 4 mg) was added a stir bar followed by 500 μL of anhydrous dimethyl sulfoxide and was allowed to stir at room temperature (22±2° C.) for 4 hours. Timed aliquots at time (T)=15, 30, 60, 120 and 240 minutes were taken, dissolved in water to achieve 2% DMSO composition and analyzed by HPLC-MS using elution method 1 (Table 5)."}, "[6]": {"test": "Temperature stability study in H2O", "format": "physicochemical", "protocol": "20° C.: To a 4 mL scintillation vial containing Compound A-E (in respective experiments; 0.8 mg) was added 4 mL of HPLC grade water to create a 0.2 mg/mL solution. 2 mL of this solution was added to a 2 mL HPLC vial and placed in the auto sampler of an HPLC-MS at 20° C. Timed aliquots at time (T)=15, 30, 60, 120, 240 and 480 minutes were taken and analyzed by HPLC-MS using elution method 1 (Table 4).\n50° C.: To a 4 mL scintillation vial containing Compound A-E (in respective experiments; 0.8 mg) was added a stir bar followed by 4 mL of HPLC grade water to create a 0.2 mg/mL solution. The vial was capped and allowed to stir in a 50° C. oil bath for 8 hours. Timed aliquots at time (T) =15, 30, 60, 120, 240 and 480 minutes were taken and analyzed by HPLC-MS using elution method 1 (Table 4)."}, "[7]": {"test": "Comparative active ester reactivity study with HOA nucleophile (benzhydroxamic acid)", "conditions": "Benzhydroxamic Acid 1 eq., 22±2° C.", "protocol": "as §1, §2"}}}
{"smiles": "O=C(CCc1cccnc1)Oc1c(F)cccc1F", "note": "[Compound B, 2,6-Difluorophenyl-3-(pyridin-3-yl)propanoate]", "values": [{"measurement": "% Active Ester Remaining", "setting": "[1]; 15 min", "result": 98.85, "unit": "%"}, {"measurement": "% Active Ester Remaining", "setting": "[1]; 30 min", "result": 96.23, "unit": "%"}, {"measurement": "% Active Ester Remaining", "setting": "[1]; 60 min", "result": 90.85, "unit": "%"}, {"measurement": "% Active Ester Remaining", "setting": "[1]; 120 min", "result": 84.98, "unit": "%"}, {"measurement": "% Active Ester Remaining", "setting": "[1]; 240 min", "result": 69.55, "unit": "%"}, {"measurement": "% Active Ester Remaining", "setting": "[2]; 15 min", "result": 91.32, "unit": "%"}, {"measurement": "% Active Ester Remaining", "setting": "[2]; 30 min", "result": 84.96, "unit": "%"}, {"measurement": "% Active Ester Remaining", "setting": "[2]; 60 min", "result": 73.90, "unit": "%"}, {"measurement": "% Active Ester Remaining", "setting": "[2]; 120 min", "result": 56.72, "unit": "%"}, {"measurement": "% Active Ester Remaining", "setting": "[2]; 240 min", "result": 35.97, "unit": "%"}, {"measurement": "% Active Ester Remaining", "setting": "[3]; 15 min", "result": 0.20, "unit": "%"}, {"measurement": "% Active Ester Remaining", "setting": "[3]; 30 min", "result": 0, "unit": "%"}, {"measurement": "% Remaining", "setting": "[4]; pH 3 buffer, 15 min", "result": 100, "unit": "%"}, {"measurement": "% Remaining", "setting": "[4]; pH 3 buffer, 30 min", "result": 99.56, "unit": "%"}, {"measurement": "% Remaining", "setting": "[4]; pH 3 buffer, 60 min", "result": 99.19, "unit": "%"}, {"measurement": "% Remaining", "setting": "[4]; pH 3 buffer, 120 min", "result": 98.69, "unit": "%"}, {"measurement": "% Remaining", "setting": "[4]; pH 3 buffer, 240 min", "result": 97.41, "unit": "%"}, {"measurement": "% Remaining", "setting": "[4]; pH 3 buffer, 480 min", "result": 95.05, "unit": "%"}, {"measurement": "% Remaining", "setting": "[4]; pH 5 buffer, 15 min", "result": 100, "unit": "%"}, {"measurement": "% Remaining", "setting": "[4]; pH 5 buffer, 30 min", "result": 99.50, "unit": "%"}, {"measurement": "% Remaining", "setting": "[4]; pH 5 buffer, 60 min", "result": 99.05, "unit": "%"}, {"measurement": "% Remaining", "setting": "[4]; pH 5 buffer, 120 min", "result": 98.27, "unit": "%"}, {"measurement": "% Remaining", "setting": "[4]; pH 5 buffer, 240 min", "result": 96.36, "unit": "%"}, {"measurement": "% Remaining", "setting": "[4]; pH 5 buffer, 480 min", "result": 92.97, "unit": "%"}, {"measurement": "% Remaining", "setting": "[4]; pH 7 buffer, 15 min", "result": 99.35, "unit": "%"}, {"measurement": "% Remaining", "setting": "[4]; pH 7 buffer, 30 min", "result": 98.45, "unit": "%"}, {"measurement": "% Remaining", "setting": "[4]; pH 7 buffer, 60 min", "result": 97.44, "unit": "%"}, {"measurement": "% Remaining", "setting": "[4]; pH 7 buffer, 120 min", "result": 95.40, "unit": "%"}, {"measurement": "% Remaining", "setting": "[4]; pH 7 buffer, 240 min", "result": 91.66, "unit": "%"}, {"measurement": "% Remaining", "setting": "[4]; pH 7 buffer, 480 min", "result": 84.15, "unit": "%"}, {"measurement": "% Remaining", "setting": "[4]; pH 9 buffer, 15 min", "result": 78.39, "unit": "%"}, {"measurement": "% Remaining", "setting": "[4]; pH 9 buffer, 30 min", "result": 65.31, "unit": "%"}, {"measurement": "% Remaining", "setting": "[4]; pH 9 buffer, 60 min", "result": 54.47, "unit": "%"}, {"measurement": "% Remaining", "setting": "[4]; pH 9 buffer, 120 min", "result": 38.67, "unit": "%"}, {"measurement": "% Remaining", "setting": "[4]; pH 9 buffer, 240 min", "result": 19.98, "unit": "%"}, {"measurement": "% Remaining", "setting": "[4]; pH 9 buffer, 480 min", "result": 5.01, "unit": "%"}, {"measurement": "% Active Ester Remaining in DMSO at 22 ± 2° C.", "setting": "[5]; 15 min", "result": 99.89, "unit": "%"}, {"measurement": "% Active Ester Remaining in DMSO at 22 ± 2° C.", "setting": "[5]; 30 min", "result": 99.81, "unit": "%"}, {"measurement": "% Active Ester Remaining in DMSO at 22 ± 2° C.", "setting": "[5]; 60 min", "result": 99.79, "unit": "%"}, {"measurement": "% Active Ester Remaining in DMSO at 22 ± 2° C.", "setting": "[5]; 120 min", "result": 99.78, "unit": "%"}, {"measurement": "% Active Ester Remaining in DMSO at 22 ± 2° C.", "setting": "[5]; 240 min", "result": 99.46, "unit": "%"}, {"measurement": "% Remaining", "setting": "[6]; 20° C., 15 min", "result": 99.63, "unit": "%"}, {"measurement": "% Remaining", "setting": "[6]; 20° C., 30 min", "result": 99.20, "unit": "%"}, {"measurement": "% Remaining", "setting": "[6]; 20° C., 60 min", "result": 98.92, "unit": "%"}, {"measurement": "% Remaining", "setting": "[6]; 20° C., 120 min", "result": 98.12, "unit": "%"}, {"measurement": "% Remaining", "setting": "[6]; 20° C., 240 min", "result": 96.98, "unit": "%"}, {"measurement": "% Remaining", "setting": "[6]; 20° C., 480 min", "result": 95.14, "unit": "%"}, {"measurement": "% Remaining", "setting": "[6]; 50° C., 15 min", "result": 97.57, "unit": "%"}, {"measurement": "% Remaining", "setting": "[6]; 50° C., 30 min", "result": 92.71, "unit": "%"}, {"measurement": "% Remaining", "setting": "[6]; 50° C., 60 min", "result": 89.62, "unit": "%"}, {"measurement": "% Remaining", "setting": "[6]; 50° C., 120 min", "result": 85.20, "unit": "%"}, {"measurement": "% Remaining", "setting": "[6]; 50° C., 240 min", "result": 79.93, "unit": "%"}, {"measurement": "% Remaining", "setting": "[6]; 50° C., 480 min", "result": 68.06, "unit": "%"}, {"measurement": "% Active Ester Remaining", "setting": "[7]; 15 min", "result": 81.80, "unit": "%"}, {"measurement": "% Active Ester Remaining", "setting": "[7]; 30 min", "result": 69.62, "unit": "%"}, {"measurement": "% Active Ester Remaining", "setting": "[7]; 60 min", "result": 56.57, "unit": "%"}, {"measurement": "% Active Ester Remaining", "setting": "[7]; 120 min", "result": 42.81, "unit": "%"}, {"measurement": "% Active Ester Remaining", "setting": "[7]; 240 min", "result": 28.60, "unit": "%"}]}
